Patent publication US4803199A, “Pharmaceutically useful heterocyclic and carbocyclic acid esters and amides of alkylene bridged piperidines” (priority 1987, dated 1989)

Key:
[1] = tested on: M receptors for serotonin; conditions: isolated rabbit vagus nerve; cited from earlier work
serotonin M receptor = target: T1, serotonin M receptor (Oryctolagus cuniculus, UniProt A0A5F9C9J3); test: inhibition of the effect of serotonin on the isolated rabbit heart; conditions: rabbit heart test, antagonism of serotonin; read-out: pA2 value (converted)
T1 construct: isolated rabbit heart; from tissue; host or cells: isolated rabbit heart
T1 sequence (A0A5F9C9J3 1-494): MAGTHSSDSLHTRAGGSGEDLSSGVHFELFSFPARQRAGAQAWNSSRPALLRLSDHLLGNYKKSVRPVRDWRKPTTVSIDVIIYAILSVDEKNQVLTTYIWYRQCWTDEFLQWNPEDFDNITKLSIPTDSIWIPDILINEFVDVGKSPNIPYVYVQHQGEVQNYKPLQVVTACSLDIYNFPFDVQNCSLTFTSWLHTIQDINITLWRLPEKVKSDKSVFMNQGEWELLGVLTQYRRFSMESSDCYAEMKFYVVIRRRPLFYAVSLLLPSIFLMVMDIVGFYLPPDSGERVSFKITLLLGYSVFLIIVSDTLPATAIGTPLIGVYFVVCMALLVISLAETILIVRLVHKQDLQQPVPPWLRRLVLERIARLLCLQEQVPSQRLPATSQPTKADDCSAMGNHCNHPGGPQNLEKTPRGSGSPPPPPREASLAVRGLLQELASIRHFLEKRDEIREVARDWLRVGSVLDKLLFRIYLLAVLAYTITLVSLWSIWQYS
From the text: The serotonin M receptor antagonist activity is also indicated by inhibiting the effect of serotonin on the isolated rabbit heart according to the method of J. R. Fozard and A. T. Moborak Ali, European Journal of Pharmacology, (1978) 49, 109-112 at concentrations of 10^-11 to 10^-5 M of the compound of the invention. pD'2 or pA2 values may be calculated in the conventional manner.

M receptors = conditions: blister base on forearm of human volunteers; cited from earlier work

**Q.** Which “block of the action of serotonin on C fibre action potential amplitude” value (shortened to “block of the action of serotonin”) [1] does the source give for CCN(CC)C(=O)[C@@H]1C=C2c3cccc4[nH]c(Br)c(c34)C[C@H]2N(C)C1 [BOL-148] here?
**A.** The value was “not blocked”.

**Q.** For COc1cc(N(C)C)ccc1C(=O)O[C@@H]1C[C@H]2CC[C@@H](C1)N2Cc1ccccc1 [Example C-2], which Kb (serotonin M receptor) is on record?
**A.** The Kb was 0.01 nM.

**Q.** Which “inhibition of the algesic action of serotonin” value (M receptors) does the source give for CCN(CC)C(=O)[C@@H]1C=C2c3cccc4[nH]cc(c34)C[C@H]2N(C)C1 [lysergic acid diethylamide] here?
**A.** Its value is “not inhibited”.

**Q.** With CC[C@@H](CO)NC(=O)[C@@H]1C=C2c3cccc4c3c(cn4C)C[C@H]2N(C)C1 [methysergide] as the compound, how does the “block of the action of serotonin” value [1] read?
**A.** Its value is “not blocked”.

**Q.** Which “block of the action of serotonin” value [1] does the source give for CSc1ccc2c(c1)C(N1CCN(C)CC1)Cc1ccccc1S2 (stereo not drawn) [metitepine] here?
**A.** The value was “not blocked”.

**Q.** With CCN(CC)CCNC(=O)c1cc(Cl)c(N)cc1OC [metoclopramide] as the compound, how does the Kb (serotonin M receptor) read?
**A.** The Kb was 79.4 nM.
